Data published in ChEMBL document CHEMBL1129095, “Design and synthesis of new antagonist peptides for platelet GPIIb/IIIa receptor as anti-thrombotic agents” (Bioorg Med Chem Lett, 1996).
Non-standard residues stand in square brackets, D forms with d. Residues, ends and D or L forms follow the SMILES beside them. *: point of attachment. Butyryl(4-indol-3-yl) = O=C(CCCc1c[nH]c2ccccc12)*; Dihydroorotyl(S) = O=C1C[C@@H](C(=O)*)NC(=O)N1; Phthalimidoacetyl = O=C1c2ccccc2C(=O)N1CC(=O)*; X4 = COc1ccc2[nH]c(C)c(CC(=O)*)c2c1; Hyp = O=C(O)[C@@H]1C[C@@H](O)CN1; X8 = COc1ccc2[nH]cc(CC(=O)*)c2c1; X7 = Cc1[nH]c2ccccc2c1CC(=O)*; pGlu = O=C1CC[C@@H](C(=O)O)N1; X2 = O=C(Cc1c[nH]c2ccccc12)*; NMePro = CN1CCC[C@H]1C(=O)*; X6 = O=C1NC(=O)C(CC(=O)*)N1; X1 = O=C1N[C@H](C(=O)*)CS1; Pip = O=C(O)[C@@H]1CCCCN1; X3 = O=C(c1cc(O)nc(O)n1)*; Thz = O=C(O)[C@@H]1CSCN1; Aze = O=C(O)[C@@H]1CCN1; X5 = O=C([C@@H]1CCCO1)*; PhAc = O=C(Cc1ccccc1)*; Bz = O=C(c1ccccc1)*

Experiments:
Homo sapiens = species on record: Homo sapiens; experiment: Inhibition of collagen-induced human platelet aggregation.; format: functional
[1] = T1/2 was evaluated in human plasma; format: ADME, cell-free

| IC50 (Homo sapiens) [µM] | half-life [1] [min] | Compound |
| --- | --- | --- |
| 74 | – | Ac-SRGDW-NH2 |
| 0.87 | – | N=C(N)NCCC[C@H](NC(=O)[C@H](CO)NC(=O)[C@@H]1CCCN1)C(=O)NCC(=O)N[C@@H](CC(=O)O)C(=O)N[C@@H](Cc1c[nH]c2ccccc12)C(=O)O |
| 28 | – | N=C(N)NCCC[C@H](NC(=O)[C@H](CO)NC(=O)[C@@H]1C[C@@H](O)CN1)C(=O)NCC(=O)N[C@@H](CC(=O)O)C(=O)N[C@@H](Cc1c[nH]c2ccccc12)C(=O)O (H-[Hyp]SRGDW-OH) |
| 8.7 | – | N=C(N)NCCC[C@H](NC(=O)[C@H](CO)NC(=O)[C@@H]1CC(=O)NC(=O)N1)C(=O)NCC(=O)N[C@@H](CC(=O)O)C(=O)N[C@@H](Cc1c[nH]c2ccccc12)C(=O)O ({Dihydroorotyl(S)}-SRGDW-OH) |
| 59 | – | N=C(N)NCCC[C@H](NC(=O)[C@H](CO)NC(=O)Cc1ccccc1)C(=O)NCC(=O)N[C@@H](CC(=O)O)C(=O)N[C@@H](Cc1c[nH]c2ccccc12)C(N)=O (PhAc-SRGDW-NH2) |
| 25 | – | COc1ccc2[nH]c(C)c(CC(=O)N[C@@H](CO)C(=O)N[C@@H](CCCN=C(N)N)C(=O)NCC(=O)N[C@@H](CC(=O)O)C(=O)N[C@@H](Cc3c[nH]c4ccccc34)C(=O)O)c2c1 (X4-SRGDW-OH) |
| 6.8 | 11 | H-WSRGDW-OH |
| 23 | – | H-FSRGDW-OH |
| 33 | – | N=C(N)NCCC[C@H](NC(=O)[C@H](CO)NC(=O)[C@H]1CCCN1)C(=O)NCC(=O)N[C@@H](CC(=O)O)C(=O)N[C@@H](Cc1c[nH]c2ccccc12)C(=O)O |
| 6.9 | – | N=C(N)NCCC[C@H](NC(=O)[C@H](CO)NC(=O)CC1NC(=O)NC1=O)C(=O)NCC(=O)N[C@@H](CC(=O)O)C(=O)N[C@@H](Cc1c[nH]c2ccccc12)C(=O)O (some centres not stated) (X6-SRGDW-OH) |
| 11 | – | N=C(N)NCCC[C@H](NC(=O)[C@H](CO)NC(=O)[C@@H]1CCCCN1)C(=O)NCC(=O)N[C@@H](CC(=O)O)C(=O)N[C@@H](Cc1c[nH]c2ccccc12)C(=O)O (H-[Pip]SRGDW-OH) |

Further lines, the compound ahead of its results:

| Compound | IC50 (Homo sapiens) [µM] | half-life [1] [min] |
| --- | --- | --- |
| NC(=O)[C@H](Cc1ccccc1)NC(=O)[C@H](CC(=O)O)NC(=O)CNC(=O)[C@@H](N)CCCN=C(N)N (H-RGDF-NH2) | 50 | – |
| N=C(N)NCCC[C@H](NC(=O)[C@H](CO)NC(=O)CN1C(=O)c2ccccc2C1=O)C(=O)NCC(=O)N[C@@H](CC(=O)O)C(=O)N[C@@H](Cc1c[nH]c2ccccc12)C(N)=O (Phthalimidoacetyl-SRGDW-NH2) | 21 | – |
| N=C(N)NCCC[C@H](NC(=O)[C@H](CO)NC(=O)c1cc(O)nc(O)n1)C(=O)NCC(=O)N[C@@H](CC(=O)O)C(=O)N[C@@H](Cc1c[nH]c2ccccc12)C(=O)O (X3-SRGDW-OH) | 4 | – |
| N=C(N)NCCC[C@H](NC(=O)[C@H](CO)NC(=O)[C@@H]1CCCO1)C(=O)NCC(=O)N[C@@H](CC(=O)O)C(=O)N[C@@H](Cc1c[nH]c2ccccc12)C(=O)O (X5-SRGDW-OH) | 21 | – |
| N=C(N)NCCC[C@H](NC(=O)[C@H](CO)NC(=O)[C@@H]1CSCN1)C(=O)NCC(=O)N[C@@H](CC(=O)O)C(=O)N[C@@H](Cc1c[nH]c2ccccc12)C(=O)O (H-[Thz]SRGDW-OH) | 27 | – |
| CN1CCC[C@H]1C(=O)N[C@@H](CO)C(=O)N[C@@H](CCCN=C(N)N)C(=O)NCC(=O)N[C@@H](CC(=O)O)C(=O)N[C@@H](Cc1c[nH]c2ccccc12)C(=O)O (NMePro-SRGDW-OH) | 20 | – |
| N=C(N)NCCC[C@H](NC(=O)[C@H](CO)NC(=O)[C@@H]1CCN1)C(=O)NCC(=O)N[C@@H](CC(=O)O)C(=O)N[C@@H](Cc1c[nH]c2ccccc12)C(=O)O (H-[Aze]SRGDW-OH) | 1.3 | – |
| N=C(N)NCCC[C@H](NC(=O)[C@H](CO)NC(=O)Cc1c[nH]c2ccccc12)C(=O)NCC(=O)N[C@@H](CC(=O)O)C(=O)N[C@@H](Cc1c[nH]c2ccccc12)C(=O)O (X2-SRGDW-OH) | 21 | – |
| N=C(N)NCCC[C@H](NC(=O)[C@H](CO)NC(=O)c1ccccc1)C(=O)NCC(=O)N[C@@H](CC(=O)O)C(=O)N[C@@H](Cc1c[nH]c2ccccc12)C(N)=O (Bz-SRGDW-NH2) | 34 | – |
| COc1ccc2[nH]cc(CC(=O)N[C@@H](CO)C(=O)N[C@@H](CCCN=C(N)N)C(=O)NCC(=O)N[C@@H](CC(=O)O)C(=O)N[C@@H](Cc3c[nH]c4ccccc34)C(=O)O)c2c1 (X8-SRGDW-OH) | 11 | – |
| Cc1[nH]c2ccccc2c1CC(=O)N[C@@H](CO)C(=O)N[C@@H](CCCN=C(N)N)C(=O)NCC(=O)N[C@@H](CC(=O)O)C(=O)N[C@@H](Cc1c[nH]c2ccccc12)C(=O)O (X7-SRGDW-OH) | 22 | – |
| N=C(N)NCCC[C@H](NC(=O)[C@H](CO)NC(=O)[C@@H]1CCC(=O)N1)C(=O)NCC(=O)N[C@@H](CC(=O)O)C(=O)N[C@@H](Cc1c[nH]c2ccccc12)C(=O)O ([pGlu]SRGDW-OH) | 5.6 | – |
| N=C(N)NCCC[C@H](NC(=O)[C@H](CO)NC(=O)CCCc1c[nH]c2ccccc12)C(=O)NCC(=O)N[C@@H](CC(=O)O)C(=O)N[C@@H](Cc1c[nH]c2ccccc12)C(=O)O ({Butyryl(4-indol-3-yl)}-SRGDW-OH) | 21 | – |
| N=C(N)NCCC[C@H](NC(=O)[C@H](CO)NC(=O)[C@@H]1CSC(=O)N1)C(=O)NCC(=O)N[C@@H](CC(=O)O)C(=O)N[C@@H](Cc1c[nH]c2ccccc12)C(=O)O (X1-SRGDW-OH) | 12 | – |
| Ac-PSRGDW-OH | 50 | – |
